We go through nine compounds from patent EP1861101B1, “USE OF AMIDES OF SULFADIMIDINE FOR THE TREATMENT OF INTESTINAL DISEASES IN VETERINARY SCIENCE” (priority 2005, dated 2006).

Series [1] deals with digestive syndrome. The series is described as follows: prevention and treatment of digestive syndrome (colibacillosis and enterotoxemia) in rabbit farming. Type of series: in vivo. Particulars: rabbits. The text has this: Given the complex relations existing between colibacillosis and enterotoxemia, they are currently included under the designation "digestive syndrome" for practical purposes. Treatment with an association of systemic drugs with drugs acting exclusively on the intestinal tract is indicated.
In the following table 2 the use of SMAA is compared to the products used most often in rabbit farming for the prevention and treatment of digestive syndrome: Table 2

Series [2] is described as follows: depletion of residue in lambs fed treated feed until the day of slaughter. To be noted: lambs that consumed treated feed until the day of slaughter. In kind it is in vivo.
The subject of series [3] is Eimeria. Nature of the series: field tests, treatment of coccidiosis in broilers through feed. Particulars: 200 to 400 g/metric ton of feed; given in the first three weeks of life, then replaced by another coccidiostatic. Type of series: in vivo. As for the experimental part: SMAA was used for the treatment of coccidiosis in broilers through feed, at doses ranging from 200 to 400 g/metric ton of feed. The best results in terms of mortality, weight gain, and conversion index have been obtained when SMAA is administered in the first three weeks of life of the chickens, and then replaced by another coccidiostatic. To this effect, our experience confirms the observations that an even improved productivity is obtained when two different coccidiostatics are alternated in the growth period.

Series [4] has as its system digestive bacterial diseases in pigs. The series is described as follows: SMAA in feed against enteric processes in swine. In kind it is in vivo. Particulars: 400-600 g per ton of feed.
The subject of series [5] is Coccidia.
For series [6], the system named is Serpulina hyodisenteriae. The series is described as follows: SMAA in feed against swine dysentery. Type of series: in vivo. To be noted: 550-600 g per ton of feed. The source says:
Although establishing a dose for the administration of a therapeutic molecule is always difficult, because therapeutic efficacy not depend only on its efficacy at a given dose, but also on the state of the animals, management, sanitary conditions of operation, feeding etc., good results were obtained with SMAA in swine at doses of 550-600 g of SMAA per ton of feed. The association of SMAA with macrolides is interesting, but it is extremely important to consider the withdrawal period of the macrolide to avoid the accumulation of residues in carcasses.

Series [7] can be described thus: solubility in water. Type of series: physicochemical. The text has this:
If the amide is the amide of maleic acid (SMAA), the amide comprises one carboxylic group. […] The free acids of the compound of the invention are essentially water insoluble and electrically neutral compounds, which become soluble in water when the free carboxyl group or other groups in the compound are converted to the carboxylate form by addition of an equivalent amount of an appropriate base, for instance an alkali or ammonium hydroxide or amine or alkanolamine.

Series [8] relates to C. perfringens. Type of series: in vivo, lambs. Particulars: 500 g/ton of feed.
Series [9] deals with Clostridium, E. coli, Salmonella, and Eimeria parasites. Nature of the series: treatment of ovine livestock with SMAA in food. Particulars: even at high doses. Type of series: in vivo. The source says:
In general, ovine livestock according to the invention is preferably treated with SMAA in food. The invention is especially useful for the prevention of enteric bacterial processes, mainly due to Clostridium, E. coli, Salmonella, and Eimeria parasites. […] Incompatibilities with other medicaments are unknown. It is not necessary to establish a withdrawal period before slaughter.
According to the invention, the association of SMAA-chlortetracycline is preferred when the pathology is located fundamentally in the digestive tract, and the association of SMAA-oxytetracycline when a preventive action at the enteric and respiratory level is sought. The most habitual doses range from 200 and 400 g/ton of feed, although it can be raised to 750 g/ton without problems.

The conditions of series [10]: growth feed for swine; cited from earlier work.
Series [11] concerns Clostridium, E. coli, and Salmonella. Nature of the series: treatment of ovine livestock with soluble SMAA in drinking water. Type of series: in vivo. As for the experimental part: In another preferred embodiment of the invention, soluble SMAA is applied with drinking water. This application is especially useful for the treatment of enteric bacterial processes, mainly Clostridium, E. coli, and Salmonella. […] Incompatibilities with other medicaments are unknown. A withdrawal period before slaughter is not necessary. When non-absorbable derivatives of sulfadimidine are added to drinking water, they are not often associated with other molecules. […] The usual dose ranges from 550-1100 g/2000 liters of water for 4 to 6 days. The availability of a soluble form makes it possible to administer the product in a milk substitute. In this case the dosage should be established in relation to the consumption of powdered milk substitutes.

Read-outs that look alike come from different tables or passages of the source.

With `CCN1CCN(c2cc3c(cc2F)c(=O)c(C(=O)O)cn3C2CC2)CC1` [Enrofloxacin], the Observations result in series [1] (efficacy remark) is on record as “Effective”.

Turning to `O=C1OCCN1/N=C/c1ccc([N+](=O)[O-])o1` [Furazolidone], the Observations result in [1] (efficacy remark) was “Effective”.

Consider `Cc1cc(C)nc(NS(=O)(=O)c2ccc(NC(=O)/C=C\C(=O)O)cc2)n1` [SMAA, 4,6-dimethyl-2-N^4-maleylsulfanilamidopyrimidine], for which the “residue level in meat” value in series [2] is recorded as “below 30 ppb”. The “mortality, weight gain, and conversion index” value in series [3] is “best results”. In addition, the Observations result in series [1] (duration of treatment and toxicity) is “Treatment can be prolonged without risk of toxicity”; in series [1] (effect on mortality), “This treatment curtails mortality”; in series [1] (efficacy remark), “The most effective agent in mixed infections by Coccidia”; in [5] (efficacy remark, rabbits), “most effective in mixed infections with E. coli”; in series [5] (rabbit, in vivo), “Treatment can be extended up to 3 weeks, if given in low doses, without risk of toxicity or residues in carcasses”. Moreover, the results in swine in [4] and in series [6] was “good results” each time. Also, the solubility in water result in series [7] (listed as free acid of SMAA) was “essentially insoluble”. Further, the mortality entry in series [8] (end of trial (4 weeks), due to undetermined causes) was “lower than 0.3%”. Further, the “enterotoxemia in the livestock” value in [8] (end of trial (4 weeks), five thousand lambs, richer feed (1.03 UFC)) was “absent”. The “watery diarrhea caused by E. coli, Salmonella dysentery, or coccidiosis” value in [8] (trial of 4 weeks) is “no case”. Further, in series [9], the dysbacteriosis result was “no problems of dysbacteriosis have appeared”.

`COc1cc(NS(=O)(=O)c2ccc(NC(=O)/C=C\C(=O)O)cc2)nc(OC)n1` [Sulfadimethoxine maleic acid amide]: the Observations result in series [5] (efficacy remark, rabbits) was “Very interesting in mixed infections”; in series [5] (rabbit, in vivo), “Treatments can continue for 21 days without risk of toxicity or residues in carcasses”.

`COc1cc(NS(=O)(=O)c2ccc(N)cc2)nc(OC)n1` [Sulfadimethoxine]: the Observations result was “Very interesting in mixed infections” in series [5] (efficacy remark, rabbits) and “requires a period of withdrawal before slaughter” in series [5] (rabbit, in vivo).

`Cc1cc(C)nc(NS(=O)(=O)c2ccc(N)cc2)n1` [Sulfadimidine, 2-(4-aminobenzenesulfonamido)-4,6-dimethylpyrimidine]: in series [10], the withdrawal period is given as 28 days. Further, the Observations entry in series [5] (effect on mortality, rabbits) is “This treatment curtails mortality”.

Take `Cc1cc(C)nc(NS(=O)(=O)c2ccc(NC(=O)/C=C\C(=O)O)cc2)n1` [soluble SMAA]: the dysbacteriosis entry in [11] (even at high doses) is reported as “no problems of dysbacteriosis have appeared”. Further, in [11] (usually 4 to 6 days), the “treatment of coccidiosis outbreaks” value is on record as “highly effective”. Also, in [7] (listed as sodium salt), the solubility in water result is given as “essentially soluble”.

Turning to Colistin, in series [1] (effect on mortality), the Observations entry is listed as “Colistin reduces mortality”.

Turning to Neomycin, the Observations result in series [1] (efficacy remark) is given as “Efficacious against moderately pathogenic strains”.
